Structures can show the parent of a compound that is named as a salt.
Fc1ccc(N2CC3CCC2CN3)cc1 (stereo not shown) (as salt: salt)
melting point: 154 to 156 °C
